Measurements reported in patent publication US20240254164A1, “PURIFICATION OF SPECIFIC TRIPEPTIDE BY ACIDIFICATION” (DSM IP Assets B.V., priority 2021, published 2024).
Non-standard residues stand in square brackets, D forms with d. Residues, ends and D or L forms follow the SMILES beside them. Met(O2) = CS(=O)(=O)CC[C@H](N)C(=O)O

Assays:
Assay type in all cases: physicochemical
[1] = Precipitation of the tripeptide from aqueous LiOH solution on acidification with HCl and cooling to 4° C.; conditions: 54 mg in 0.2 ml 0.1 M aqueous LiOH, pH lowered from 9 with 2M HCl, cooled to 4° C.
Method: 54 mg Ac-Met(O2)-Val-Val-OH have been dissolved in 0.2 ml 0.1 M aqueous LiOH. A clear solution is formed. The pH was lowered from 9 to the pH as indicated in table 1 by adding 2M HCl and cooled to a temperature of 4° C.
In example 1, a precipitation the tripeptide in fine particles at the bottom of the vessel was observed is formed which was separated by filtration over a glass frit filter.

[2] = Precipitation of acidified tripeptide dissolved in water at reflux and cooled to 4° C. (Example 2); conditions: pH 1.9; 67.3 g in 500 ml water at reflux, cooled to 4° C. within 2.5 hours, kept 30 minutes
Method: 67.3 g acidified Ac-Met(O2)-Val-Val-OH was dissolved in 500 ml water (pH 1.9 of solution) at reflux. The solution was cooled to 4° C. within 2.5 hours and kept at 4° C. during 30 minutes.

[3] = Precipitation of different acidified tripeptides from aqueous solution heated to reflux and cooled to room temperature; conditions: 0.5 mol/L aqueous solution, reflux, cooled to room temperature
From the text: Aqueous solutions of different tripeptides acidified to the pH as given in table 2 were heated to reflux temperature. The clear solutions (0.5 mol/L) have been cooled to room temperature.
The fine particles of example 3 formed at the bottom of the vessel have been collected by a filtration over a glass frit filter.

[4] = Susceptibility against oxidation by atmospheric oxygen; conditions: compared to the corresponding tripeptide Ac-Met-Val-Val-OH

## CC(=O)N[C@@H](CCS(C)(=O)=O)C(=O)N[C@H](C(=O)N[C@H](C(=O)O)C(C)C)C(C)C [Ac-Met(O2)-Val-Val-OH] (Ac-[Met(O2)]-Val-Val-OH)
[1]; pH 2
  Observation after cooling: Fine particles formed
[1]; pH 3
  Observation after cooling: Opaque solution. No particles formed
[2]
  Observation after cooling: fine particles formed
[3]; pH 2
  Observation after cooling: Fine particles formed
[4]
  Susceptibility against oxidation by atmospheric oxygen: significant lower susceptibility against oxidation

## CC(=O)N[C@@H](CO)C(=O)N1CCC[C@H]1C(=O)N[C@@H](C)C(=O)O [Ac-Ser-Pro-Ala-OH] (Ac-Ser-Pro-Ala-OH)
[3]; pH 0.9
  Observation after cooling: No particles formed

## CC(=O)N[C@@H](CCC(N)=O)C(=O)N1CCC[C@H]1C(=O)N[C@@H](C)C(=O)O [Ac-Gln-Pro-Ala-OH] (Ac-Gln-Pro-Ala-OH)
[3]; pH 1.5
  Observation after cooling: No particles formed
